Laboratory results as given in patent US11661396B2, “Crystalline forms of zuclomiphene citrate” (Apotex Inc., priority 2020, dated 2023).
Counter-ions that a name gives are not always drawn.

Assays:
[1] = system: hot flashes in men with prostate cancer on androgen deprivation therapy; conditions: 50 mg zuclomiphene citrate, interim Phase 2 clinical trial results; cited from earlier work
[2] = PXRD studies of capped and uncapped samples maintained in a 40° C./75% RH stability chamber; type: physicochemical
Procedure: Zuclomiphene citrate Form APO-1 can be characterized by a PXRD diffractogram comprising, among other peaks, characteristic peaks, expressed in degrees 2θ (±0.2°), at 8.8°, 9.6° and 11.7°. Preferably, the PXRD diffractogram further comprises at least three peaks, expressed in degrees 2θ (±0.2°), selected from the group consisting of 10.9°, 12.4°, 14.7°, 14.9°, 17.3°, 17.8°, 18.6°, 19.9°, 20.5°, 23.6° and 25.4°. More preferably, the PXRD diffractogram further comprises peaks, expressed in degrees 2θ (±) 0.2°, at 10.9°, 12.4°, 14.7°, 14.9°, 17.3°, 17.8°, 18.6°, 19.9°, 20.5°, 23.6° and 25.4°.
Zuclomiphene citrate Form APO-III can be characterized by a PXRD diffractogram comprising, among other peaks, characteristic peaks, expressed in degrees 2θ (±0.2°), at 8.7°, 9.8° and 10.5°. Preferably, the PXRD diffractogram further comprises at least three peaks, expressed in degrees 2θ (±0.2°), selected from the group consisting of 11.6°, 12.3°, 15.3°, 16.9°, 18.0°, 18.6°, 19.4°, 20.4°, 21.0° and 24.5°. More preferably, the PXRD diffractogram further comprises peaks, expressed in degrees 2θ (±0.2°), at 11.6°, 12.3°, 15.3°, 16.9°, 18.0°, 18.6°, 19.4°, 20.4°, 21.0° and 24.5°. […]
PXRD diffractograms were recorded on a Bruker D8 Discover powder X-ray diffractometer (Bruker-AXS, Karlsruhe, Germany). […] Raw data were evaluated using the program EVA (Bruker-AXS, Karlsruhe, Germany).

[3] = Thermodynamic stability of the crystalline form; type: physicochemical
Source text: Zuclomiphene citrate Form APO-IV can be prepared by gradual addition of a solution of citric acid in a suitable solvent, preferably an alcohol or ketone solvent such as methanol or acetone, to a solution of zuclomiphene free base in a suitable solvent, preferably an alcohol solvent such as 2-methyl-1-propanol or 1-butanol, more preferably an ester solvent, such as ethyl acetate. Preferably, the solution of zuclomiphene free base is heated to an elevated temperature prior to addition of the citric acid solution, preferably in the range of about 50° C. to about 70° C. Following addition, the resulting mixture is preferably charged with Form APO-IV seeds and maintained at elevated temperature for a time (′aged), preferably in the range of about 16 hours to about 4 days, more preferably in the range of about 16 hours to about 48 hours. Following aging, the resulting mixture is preferably cooled to a temperature in the range of about 0° C. to about 35° C., most preferably room temperature, prior to isolation of the solid by filtration and drying, if necessary. Drying can be conducted in vacuo, preferably at a temperature in the range of about 50° C. to about 70° C., preferably for about 18 hours to about 3 days.

Question: With `CCN(CC)CCOc1ccc(/C(=C(\Cl)c2ccccc2)c2ccccc2)cc1` [zuclomiphene citrate, 2-[4-[(Z)-2-chloro-1,2-diphenylethenyl]phenoxy]-N,N-diethylethanamine] as the compound, how does the “decrease in moderate to severe hot flashes from baseline” value [1] read?
Answer: Its value is “statistically significant decrease”.

Question: For `CCN(CC)CCOc1ccc(/C(=C(\Cl)c2ccccc2)c2ccccc2)cc1` [Form APO-III, zuclomiphene citrate], which “change in the crystalline form (PXRD)” value ([2]; at least 8 weeks) is on record?
Answer: The value was “no change in the crystalline form occurred”.

Question: For `CCN(CC)CCOc1ccc(/C(=C(\Cl)c2ccccc2)c2ccccc2)cc1` [Form APO-IV, zuclomiphene citrate], which thermodynamic stability [3] is on record?
Answer: Its thermodynamic stability is “thermodynamically stable”.

Question: With `CCN(CC)CCOc1ccc(/C(=C(\Cl)c2ccccc2)c2ccccc2)cc1` [Form APO-I, zuclomiphene citrate] as the compound, how does the “change in the crystalline form (PXRD)” value ([2]; at least 4 weeks) read?
Answer: Its value is “no change in the crystalline form occurred”.
